Experimental data from patent publication US9593381B2, “Method and kit for detecting carbapenemase genes” (Amplidiag OY, priority 2009, dated 2017).

Experiments:
[1] = molecular target: T1, NDM-1 (Klebsiella pneumoniae, UniProt C7C422); conditions: metallo-β-lactamase NDM-1; cited from earlier work
[2] = molecular target: T1, NDM-1; conditions: cited from earlier work
[3] = system: Enterobacter cloacae strain harbouring IMI-2 gene; assay: Antibiotic susceptibility (MIC) of the IMI-2 positive clinical strain; type: cell-based; parameters: MIC: unit not given beside the values; conditions: for resistance of the strain: IMI-2 positive Enterobacter cloacae strain

T1 sequence (C7C422 29-270 limits assumed): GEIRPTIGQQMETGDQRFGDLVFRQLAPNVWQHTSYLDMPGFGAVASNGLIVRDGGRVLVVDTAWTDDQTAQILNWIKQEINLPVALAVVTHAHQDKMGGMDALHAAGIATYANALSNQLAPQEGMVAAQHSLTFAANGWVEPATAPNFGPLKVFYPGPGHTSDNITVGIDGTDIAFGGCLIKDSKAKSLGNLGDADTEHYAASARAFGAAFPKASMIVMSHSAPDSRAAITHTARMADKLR

Compound	binding to NDM-1 compared to VIM-2 [2]	resistance of the strain [3]	also measured
C[C@H]1[C@H](NC(=O)/C(=N\OC(C)(C)C(=O)O)c2csc(N)n2)C(=O)N1S(=O)(=O)O [aztreonam]			hydrolysis by NDM-1 [1]: can hydrolyze all β-lactams except aztreonam
CO/N=C(\C(=O)N[C@@H]1C(=O)N2C(C(=O)O)=C(COC(C)=O)CS[C@H]12)c1csc(N)n1 [cefotaxime]	tighter binding		
CO/N=C(\C(=O)N[C@@H]1C(=O)N2C(C(=O)O)=C(COC(N)=O)CS[C@H]12)c1ccco1 [cefuroxime]	tighter binding		
CC(=O)OCC1=C(C(=O)O)N2C(=O)[C@@H](NC(=O)Cc3cccs3)[C@H]2SC1 [cephalothin]	tighter binding		
C[C@@H](O)[C@H]1C(=O)N2C(C(=O)O)=C(S[C@@H]3CN[C@H](C(=O)Nc4cccc(C(=O)O)c4)C3)[C@H](C)[C@H]12 [ertapenem]		highly resistant	MIC ([3]; IMI-2 positive Enterobacter cloacae strain isolated from a patient in intensive care unit): > 256
C[C@@H](O)[C@H]1C(=O)N2C(C(=O)O)=C(S[C@@H]3CN[C@H](C(=O)N(C)C)C3)[C@H](C)[C@H]12 [meropenem]		highly resistant	
trimetoprim/sulfa		not, however, resistant	
